The values below come from patent US9949960B2, “Pharmaceutical composition for preventing or treating muscle weakness-related diseases, containing butylpyridinium or derivative thereof” (KOREA RESEARCH INSTITUTE OF BIOSCIENCE AND BIOTECHNOLOGY, priority 2014, dated 2018).

Each structure is given as a SMILES string.

The subject of test [1] is C57BL/6 male mice, muscle immobilization model. Briefly: Treadmill test after tibialis anterior muscle immobilization. In kind it is in vivo, mouse. Conditions: compared to control group. As to the method: (§1) As experimental animals, 20 of C57BL/6 male mice aged 6 weeks were used. The experimental animals were assigned to two groups: a control group, to which 10 mice having similar weights were assigned without administration, and an experimental group, to which 10 mice having similar weights were assigned with butylpyridinium chloride administration.
(§2) It was also administered continuously during the muscle immobilization periods described below.
(§3) In this experiment, as a method for inducing muscle regeneration in mice, the tibialis anterior muscle immobilization protocol was used. In this method, the thighs and shins of one leg of a mouse were fixed using a medical staple so that legs were immobilized, and after leaving the immobilized mouse alone for 3 days, the fixed leg was released. The principle used in this method is that when a leg is placed in a cast and the muscle of the leg is immobilized (i.e., not frequently used), the muscle is lost. It is a method for inducing muscle regeneration, in which, after the muscle loss due to immobilizing the shin muscle, the muscle is regenerated by releasing the immobilized muscle so that the muscle may move again. […]

The test system of test [2] is C2C12 myoblast cell line. Briefly: Immunocytochemistry of MYH3 expression in differentiating C2C12 cells. The settings on record: 0.2 μM, third day of differentiation; FIG. 2. It counts as cell-based, mouse. As to the method: (§4) The DMSO, cetylpyridinium chloride, butylpyridinium chloride, and dodecylpyridinium chloride used in the experiment were all purchased from Sigma-Aldrich.
C2C12 cells on a cover glass coated with 0.1% gelatin were differentiated for 3 days. After washing the cells with 1×PBS, fixing with 3.7% paraformaldehyde at room temperature for 15 minutes, and washing 3 times with 1×PBS, a permeabilization buffer was added, and the cells were reacted at room temperature for 15 minutes. After washing the cells three times with 1×PBS again, the cells were reacted for 30 minutes with PBST (blocking buffer, PBS containing 0.5% Tween 20) containing 1% BSA to deter any unspecific binding of antibodies. The primary antibody against MYH3 (SC-20641, Santa Cruz Biotechnology) was added to the blocking buffer by diluting at a ratio of 1:500 and was reacted at room temperature for 1 hour. After washing the cells three times with 1×PBS, the secondary antibody (Goat anti-Rabbit IgG-HRP), which was diluted in the blocking buffer at a ratio of 1:5000, was added and reacted at room temperature for 1 hour, and the cells were washed three times with 1×PBS. The cover glass was placed on a slide glass, photographs were taken with a fluorescence microscope, and the results were analyzed.

For test [3], the system named is C57BL/6 male mice, muscle immobilization model. Briefly: Grip strength test after tibialis anterior muscle immobilization. In kind it is in vivo, mouse. The settings on record: compared to control group. As to the method: as §1, §2
In this experiment, as a method for inducing muscle regeneration in mice, the tibialis anterior muscle immobilization protocol was used. In this method, the thighs and shins of one leg of a mouse were fixed using a medical staple so that legs were immobilized, and after leaving the immobilized mouse alone for 3 days, the fixed leg was released. The principle used in this method is that when a leg is placed in a cast and the muscle of the leg is immobilized (i.e., not frequently used), the muscle is lost. […]
Grip strength was measured using a grip strength measuring instrument made by the company BIOSEB. The mouse was placed on a wire mesh attached to the instrument panel that can monitor the strength of a force, and the force of holding the wire mesh by the mouse while the tail was gripped downward was measured. […]

For test [4], the system named is C2C12 myoblast cell line. Briefly: Western blot of MYH3 protein in differentiating C2C12 cells. The settings on record: 0.2 μM every day, third day of differentiation, vs DMSO control; FIG. 3. In kind it is cell-based, mouse. The procedure: The cells were harvested on the third day of differentiation and centrifuged at 1200 rpm for 3 minutes. After adding 100 μL of a lysis buffer to the cells, the cells were sonicated and centrifuged at 3000 rpm for 10 minutes to obtain a water-soluble protein, and after adding a 4× sample buffer, the cells were reacted in boiling water for 5 minutes.
10 μg of the protein was loaded on a 12% SDS-PAGE gel and developed, and then was transferred onto a nitrocellulose membrane. The nitrocellulose membrane was blocked in 5% skim milk for 1 hour at room temperature and washed 5 times with TTBS (0.03% Tween 20, Tris 2.42 g, NaCl 9 g, pH 7.4, and 1 L) for 5 minutes each. The primary antibody was diluted in TTBS containing 5% skim milk at a ratio of 1:500 and was added to the nitrocellulose membrane, and after reacting at room temperature for 2 hours, the nitrocellulose membrane was again washed 5 times with TTBS for 5 minutes each. The secondary antibody was diluted at a ratio of 1:5000 again in TTBS containing 5% skim milk and added, was reacted at room temperature for 2 hours, was washed with TTBS 5 times for 5 minutes each, and ECL (Enhanced Chemiluminescent solution, Pierce) was added. Thereafter, the membrane was exposed to X-ray film, and the amount of the protein was measured.

In test [5] the test system is C2C12 myoblast cell line. Briefly: Myotube formation of C2C12 cells observed under phase contrast microscopy. The settings on record: 0.2 μM, 3 days differentiation, compared to DMSO control; FIG. 1. It counts as cell-based, mouse. As to the method: C2C12 is a cell line of myoblasts obtained from a C3H strain live mouse, and it is widely used in the differentiation studies of myoblasts.
The above-described C2C12 cells were cultured in each of general media for cell growth and media for differentiation. In the normal cell growth media (GM), DMEM supplemented with 10% fetal bovine serum was used, and in the differentiation media (DM), DMEM containing 2% horse blood serum was used.
as §4

Test [6] deals with C57BL/6 male mice, muscle immobilization model. Briefly: Rota-rod test after tibialis anterior muscle immobilization. It counts as in vivo, mouse. Conditions: compared to control group. The procedure:
as §1, §2, §3
In general terms: In the rotarod test animals must keep their balance on a rotating rod.

Test [7] relates to mouse immobilization model. Briefly: Motor ability by rota-rod and treadmill tests after concentration-dependent oral administration. The settings on record: FIG. 10.
Protocol: The exercise was applied using a rota-rod device consisting of 6 partitions (with a diameter of 7 cm, at an interval of 15 cm) and a rotatable cylindrical bar (with a height of 60 cm).
For the treadmill used in this test, a self-manufactured device was used. After each mouse was placed in an isolated lane and made to run, the time from the starting point to a point when the mouse was exhausted (i.e., judged to have no will to run) was recorded. […] In this experiment, repeated experiments on the same mouse could not be performed. The mouse was placed on the device and was made to run at a speed of 8 rpm, the speed was accelerated by 2 rpm every 10 minutes up to a speed of 18 rpm, and starting with no inclination, the inclination was increased by 5 degrees every 30 minutes.
The subject of test [8] is mouse immobilization model. Briefly: Skeletal muscle mass (muscle weight divided by body weight) in mouse immobilization model. The settings on record: oral, concentration-dependent, 7 days after inducing regeneration; FIG. 11. It counts as in vivo. The text has this:
Afterwards, an increase in the skeletal muscle mass due to the drug was confirmed by dividing the weight of the separated muscle by the body weight of the mouse (FIG. 11).

Test [9] deals with mouse immobilization model. Briefly: Muscle fiber cross-sectional area (Laminin staining of TA muscle) in mouse immobilization model. The settings on record: 1.7 mg/kg (mouse) oral, compared to control group; FIG. 12.
Protocol: The separated muscle was cut to a thickness of 5 μM and stained by immunofluorescence using a Laminin antibody. […] By using the Laminin antibody, sections of the skeletal muscle fibers formed in the basement membrane were stained, and the cross-sectional area of the muscle fibers was measured (FIG. 12).

With `CCCC[n+]1ccccc1` [butylpyridinium chloride], the “endurance (treadmill)” value in test [1] (15 mg/kg oral, after muscle immobilization, FIG. 6) was “improved”. For the same compound, the “expression of MYH3 (immunocytochemistry)” value in the test on C2C12 myoblast cell line [2] is “very high”. In addition, in test [3] (15 mg/kg oral, 3 days immobilization, tested 7 days after release, FIG. 4), the “range of decrease in grip strength after muscle immobilization” value is recorded as “reduced”. Also, the “amount of MYH3 protein (Western blot)” value in the test with C2C12 myoblast cell line [4] is given as “significantly increased”. In addition, the “formation of myotubes (differentiation promoting effect)” value with C2C12 myoblast cell line [5] is “more myotubes were formed”. Further, in test [6] (15 mg/kg oral, after muscle immobilization, FIG. 5), the “motor ability to maintain the sense of balance (rota-rod)” value was “improved”.

For the compound `CCCCCCCCCCCCCCCC[n+]1ccccc1` [cetylpyridinium bromide], the “amount of MYH3 protein (Western blot)” value in the test on C2C12 myoblast cell line [4] is given as “increased”.

On to `CCCCCCCCCCCCCCCC[n+]1ccccc1` [cetylpyridinium chloride], for which the “motor ability (rota-rod and treadmill tests)” value in test [7] was “improved”. Moreover, the “endurance (treadmill)” value in test [1] (50 mg/kg oral for 2 weeks, FIG. 9) was “improved”. Also, in the test with C2C12 myoblast cell line [2], the “expression of MYH3 (immunocytochemistry)” value is “very high”. Further, the “range of decrease in grip strength after muscle immobilization” value in [3] (50 mg/kg oral for 2 weeks, FIG. 7) is given as “reduced”. Also, the “amount of MYH3 protein (Western blot)” value in the test with C2C12 myoblast cell line [4] was “significantly increased”. The “formation of myotubes (differentiation promoting effect)” value in the test with C2C12 myoblast cell line [5] is “more myotubes were formed”. Moreover, in test [8], the “skeletal muscle mass of the EDL muscle” value is “increased” and the “skeletal muscle mass of the gastrocnemius muscle” value is “increased”. Further, the “cross-sectional area of the muscle (TA)” value in [9] is “increased”. For the same compound, the “motor ability to maintain the sense of balance (rota-rod)” value in test [6] (50 mg/kg oral for 2 weeks, FIG. 8) is reported as “improved”.

As to `CCCCCCCCCCCC[n+]1ccccc1` [dodecylpyridinium chloride], the “expression of MYH3 (immunocytochemistry)” value in the test with C2C12 myoblast cell line [2] is recorded as “very high”. In the test on C2C12 myoblast cell line [4], the “amount of MYH3 protein (Western blot)” value is listed as “significantly increased”. The “formation of myotubes (differentiation promoting effect)” value with C2C12 myoblast cell line [5] is “more myotubes were formed”.

Take `CC[n+]1ccccc1.[Cl-]` [ethylpyridinium chloride]: in the test on C2C12 myoblast cell line [4], the “amount of MYH3 protein (Western blot)” value was “did not increase”.
